Laboratory results: ChEMBL document CHEMBL3044803, “Impact of tricyclazole and azoxystrobin on growth, sporulation and secondary infection of the rice blast fungus, Magnaporthe oryzae” (Pest Manag Sci, 2013)
Values after ≈ are worked out from the molar mass of the structure shown. Active and inactive are the calls of the source. The calls are words filed in the database; no cut-off is given here.

Experiments:
Pyricularia oryzae [1] = assay: microbe, parasite or virus in culture; type: functional, organism-based; conditions: 168 h
Pyricularia oryzae [2] = assay: microbe, parasite or virus in culture; type: functional; conditions: 168 h
Pyricularia oryzae [3] = assay: microbe, parasite or virus in culture; type: functional; conditions: for EC50: Pyricularia oryzae, 168 h, read-out: ED50 (the source's name)
Pyricularia grisea = assay: Fungicidal activity against Magnaporthe grisea; type: functional; conditions: read-out: ED50 (the source's name)
Pyricularia oryzae [4] = assay: Fungicidal activity against Magnaporthe oryzae assessed as reduction of appressorium diameter of conidia at 0.01 to 1 mg/l at 26 degC measured after 7 days; type: functional, organism-based
Pyricularia oryzae [5] = assay: Fungicidal activity against Magnaporthe oryzae assessed as germination of conidia at 1 mg/l at 26 degC measured after 7 days; type: functional
Pyricularia oryzae [6] = assay: Fungicidal activity against Magnaporthe oryzae from perennial ryegrass; type: functional; conditions: read-out: ED50 (the source's name)
Pyricularia oryzae [7] = assay: Fungicidal activity against Magnaporthe oryzae assessed as germination of conidia at 0.01 mg/l at 26 degC measured after 7 days; type: functional, organism-based
Pyricularia oryzae [8] = assay: microbe, parasite or virus in culture; conditions: 168 h, read-out: INH

SMILES | EC50 (Pyricularia oryzae [1]) [µg/mL] | inhibition at 1 µg/mL (Pyricularia oryzae [2]) [%] | ED90 (Pyricularia oryzae [3]) [µg/mL] | EC50 (Pyricularia oryzae [3]) [µg/mL] | EC50 (Pyricularia grisea) [µg/mL] | Activity (Pyricularia oryzae [4]) | Activity (Pyricularia oryzae [5]) [%] | EC50 (Pyricularia oryzae [6]) [µg/mL] | Activity (Pyricularia oryzae [7]) | inhibition at 5 µg/mL (Pyricularia oryzae [8]) [%]
CO/C=C(/C(=O)OC)c1ccccc1Oc1cc(Oc2ccccc2C#N)ncn1 [AZOXYSTROBIN] | 0.017 (≈ 0.0421 µM) | 95 | 69.58 (≈ 172 µM) | 0.044 (≈ 0.109 µM) | 1.8 (≈ 4.46 µM) | Active | 67.1 | 0.013 (≈ 0.0322 µM) | inactive | 
Cc1cccc2sc3nncn3c12 [TRICYCLAZOLE] | 0.072 (≈ 0.38 µM) |  | 215.64 (≈ 1140 µM) | 1 (≈ 5.31 µM) |  |  |  |  |  | 95
